“Also recorded” adds a separate entry of the source.
Legend:
[1] = Absorbance measurement of iron chelate color development, first reagent solution pH 8.0 (Example 3 / Comparative Example 1); format: physicochemical; conditions: aqueous iron solution 200 μg/dL; R-1 tricine pH 8.0, R-2 tricine pH 8.0; color former 0.23 mM; 37° C.
Procedure: (§1) [Preparation of Reagent Solution]
(§2) (R-1) First Reagent Solution:
A 100 mM tricine buffer solution (pH 8.0) containing 0.5% (w/v) polyvinylpyrrolidone (K-90) (produced by Wako Pure Chemical Industries, Ltd.) was used as the first reagent solution.
(§3) (R-2) Second Reagent Solution:
A 100 mM tricine buffer solution (pH 8.0) containing 1 mM 4S-SPF synthesized in Example 1 or 1 mM 2S-4CPF synthesized in Example 2 was used as the second reagent solution.
Aqueous ferrous ammonium sulfate solution (containing 200 μg/dL iron) was prepared and used as a sample.
(§4) [Measurement of Absorbance]
For the above-described sample, the measurement of absorbance was carried out using the reagent solution described above, and using JEOL BM6050 automatic analyzer (manufactured by JEOL Co., Ltd.) by the following measurement conditions. In addition, when the measurement of reagent blank, measurement was carried out in the same manner using physiological saline instead of the sample.
Analysis method/Reaction time: [EPA] [10]
Measurement point: [44], [47]-[95], [98].
Wavelength (secondary/dominant): [694] [596]
Sample volume: 8 μL (2 times dilution at measurement)
Measurement temperature: 37° C.
It should be noted that the concentration of 4S-SPF or 2S-4CPF at the time of measurement was 0.23 mM.
A 100 mM tricine buffer solution (pH 8.0) containing 0.5% (w/v) polyvinylpyrrolidone (K-90) was used as the first reagent solution.
A 100 mM tricine buffer solution (pH 8.0) containing 1 mM CPF was used as the second reagent solution. The CPF was synthesized according to the method described in the Mitsuru Hoshino et al., Yakugaku Zassi, 2011, vol. 131, No. 7, p. 1095-1101 (Non-Patent Literature 1), and used.
Aqueous ferrous ammonium sulfate solution (containing 200 μg/dL iron) prepared and used as a sample.
For the above-described sample, the measurement of absorbance was carried out using the reagent solution described above and using JEOL BM6050 automatic analyzer (manufactured by JEOL Co., Ltd.) by the same measurement conditions as performed in Example 3. […]

[2] = Absorbance measurement of iron chelate color development, first reagent solution pH 3.2 (Example 4 / Comparative Example 2); format: physicochemical; conditions: aqueous iron solution 200 μg/dL; R-1 glycine pH 3.2 (condition of serum iron measurement), R-2 tricine pH 9.0; color former 0.23 mM
Procedure: as §1, §2
A 10 mM glycine buffer solution (pH 3.2) containing 0.5% (w/v) polyvinylpyrrolidone (K-90) (produced by Wako Pure Chemical Industries, Ltd.) was used as the first reagent solution.
as §3
A 100 mM tricine buffer solution (pH 9.0) containing 1 mM 4S-SPF which was synthesized in Example 1 or 1 mM 2S-4CPF which was synthesized in Example 2 was used as the second reagent solution.
The sample used was same as used in Example 3.
as §4
For the above-described sample, the measurement of absorbance was carried out using the reagent solution described above and using JEOL BM6050 automatic analyzer (manufactured by JEOL Co., Ltd.) by the same measurement conditions as performed in Example 3.
It should be noted that, the concentration of 4S-SPF or 2S-4CPF at the time of measurement was 0.23 mM.
A 10 mM glycine buffer solution (pH 3.2) containing 0.5% (w/v) polyvinylpyrrolidone (K-90) was used as the first reagent solution.
A 100 mM tricine buffer solution (pH 9.0) containing 1 mM CPF was used as the second reagent solution. CPF was synthesized according to the method described in the Mitsuru Hoshino et al., Yakugaku Zassi, 2011, vol. 131, No. 7, p. 1095-1101 (Non-Patent Literature 1), and used.
The sample used was the same as used in Example 4.
For the above-described sample, the measurement of absorbance was carried out using the reagent solution described above and using JEOL BM6050 automatic analyzer (manufactured by JEOL Co., Ltd.) by the same measurement conditions as performed in Example 4.
It should be noted that, the concentration of the CPF at the time of measurement was 0.23

SMILES | color fading after color development [1] | color fading after color development [2]
O=C(O)c1ccc(-c2c3cc(O)c(=O)cc-3oc3cc(O)c(O)cc23)c(S(=O)(=O)O)c1 [2S-4CPF, 9-(4-carboxy-2-sulfophenyl)-2,3,7-trihydroxy-6-fluorone] | color fading was not confirmed | fading after color development was not observed
O=c1cc2oc3cc(O)c(O)cc3c(-c3ccc(S(=O)(=O)O)cc3S(=O)(=O)O)c-2cc1O [4S-SPF, 9-(2,4-disulfophenyl)-2,3,7-trihydroxy-6-fluorone] | color fading was not confirmed | fading after color development was not observed
O=C(O)c1ccccc1-c1c2cc(O)c(=O)cc-2oc2cc(O)c(O)cc12 [CPF, 9-(2-carboxyphenyl)-2,3,7-trihydroxy-6-fluorone, reference compound] | color fading after color development was observed | color fading after color development was observed; also recorded: fading after color development was remarkable

Reference: patent publication US9448244B2, “Compound, and method for measuring iron concentration by using novel compound as chelate color former” (WAKO PURE CHEMICAL INDUSTRIES, LTD., priority 2012, dated 2016)
